The results in this text go back to patent US8889732B2, “Fused heterocyclic compounds and thrombopoietin receptor activators” (Nissan Chemical Industries, Ltd., priority 2009, dated 2014).

Structures are written as SMILES.

The target of this test is T1, human thrombopoietin receptor (c-mpl) (Homo sapiens, UniProt P40238).
T1 construct: expressed in transfected cells
T1 sequence (P40238 26-635): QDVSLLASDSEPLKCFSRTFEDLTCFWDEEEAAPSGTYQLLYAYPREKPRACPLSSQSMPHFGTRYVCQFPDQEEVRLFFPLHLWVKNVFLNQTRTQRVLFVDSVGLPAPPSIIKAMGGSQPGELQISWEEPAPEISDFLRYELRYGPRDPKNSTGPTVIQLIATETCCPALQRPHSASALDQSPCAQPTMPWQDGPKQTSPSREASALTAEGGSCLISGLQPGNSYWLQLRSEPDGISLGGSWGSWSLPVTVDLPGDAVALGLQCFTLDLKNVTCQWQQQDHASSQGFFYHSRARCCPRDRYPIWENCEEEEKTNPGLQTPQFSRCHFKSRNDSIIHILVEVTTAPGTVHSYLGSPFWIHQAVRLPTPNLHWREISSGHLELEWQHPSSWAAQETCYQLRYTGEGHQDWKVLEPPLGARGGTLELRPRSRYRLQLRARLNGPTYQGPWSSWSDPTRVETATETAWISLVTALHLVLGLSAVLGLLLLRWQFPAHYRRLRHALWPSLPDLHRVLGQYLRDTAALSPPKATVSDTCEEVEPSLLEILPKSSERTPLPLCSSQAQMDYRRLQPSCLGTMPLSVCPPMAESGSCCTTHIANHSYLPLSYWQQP
Briefly: Stimulation of proliferation of thrombopoietin-dependent cell line UT7/EPO-mpl (WST-8). The settings on record: concentration yielding growth rate corresponding to 50% of growth of UT-7/EPO-mpl in the presence of 10 ng/mL TPO; 4 days incubation, WST-8. It is filed as cell-based. The procedure: The responses of thrombopoietin receptor to the compounds of Synthetic Examples of the present invention were assayed using a human leukemic cell line, UT7/EPO-mpl.
UT7/EPO-mpl is a stable transformed cell line obtained by introducing into human leukemic cell line UT7/EPO a vector that induces expression of human thrombopoietin receptor (c-mpl) under control of cytomegalovirus immediate-early promoter by the method of Takatoku et al. (J. Biol. Chem., 272:7259-7263 (1997)). […] These two cell lines were subcultured in IMDM (Invitrogen) containing 10% fetal bovine serum (Thermo Electron or BioWest) using a CO2 incubator (5% CO2, 37° C.).
The subcultured cells described above were washed twice with PBS and suspended in IMDM containing 10% fetal bovine serum at a cell density of 6×10^4 cells/ml. The cell suspension was transferred to a 96-well tissue culture plate (CORNING) in 100-μl aliquots. Then either thrombopoietin (Pepro Tech EC) or the compound of Synthetic Examples dissolved in dimethyl sulfoxide were diluted 83-fold with IMDM containing 10% fetal bovine serum and added to the aforementioned cell suspension in 20-μl aliquots. The cell suspension was incubated in a CO2 incubator (5% CO2, 37° C.) for 4 days. Cell proliferation was assayed using WST-8 reagent (Kishida Chemical Co., Ltd.) according to instructions by the manufacturer. A 10-μl aliquot of 5 mM WST-8 reagent solution was added to each well of the tissue culture plate, and the plate was incubated at 37° C. for 4 hours. The formazan pigment generated was detected by measuring the absorbance at 450 nm with a 96-well microplate reader (Nihon Molecular Devices, Spectramax 190).
A general note: Tetrazolium dyes change colour on reduction, which living cells bring about.

What is called EC50 is the concentration that produces a half-maximal response. On to `C/C(=N\NC(=O)c1ccc(C(=O)NCc2ccncc2)s1)c1nn(C)c(-c2ccc3c(c2)CCC3)c1O` [compound 1], for which the EC50 was 1.55 nM.

In the case of `C/C(=N\NC(=O)c1ccc(C(=O)NCCc2ccncc2)s1)c1nn(C)c(-c2ccc3c(c2)CCC3)c1O` [compound 2], the EC50 was 3.4 nM.

`CCN(CC)C(=O)c1ccc(C(=O)N/N=C(\C)c2nn(C)c(-c3ccc4c(c3)CCC4)c2O)s1` [compound 3]: the EC50 was 70.3 nM.

`C/C(=N\NC(=O)c1ccc(C(=O)N2CCCC2)s1)c1nn(C)c(-c2ccc3c(c2)CCC3)c1O` [compound 4]: the EC50 was 11.1 nM.

For `COC(=O)c1ccc(C(=O)N/N=C(\C)c2nn(C)c(-c3ccc4c(c3)CCC4)c2O)cc1[N+](=O)[O-]` [compound 5], the concentration giving a half-maximal response (EC50) was 11.7 nM.

For `COC(=O)c1ccc(C(=O)N/N=C(\C)c2nn(C)c(-c3ccc4c(c3)CCC4)c2O)s1` [compound 6], the concentration for a half-maximal effect (EC50) was 18.9 nM.

With `COC(=O)c1ccc(C(=O)N/N=C(\C)c2nn(C)c(-c3ccc4c(c3)CCC4)c2O)cc1` [compound 7], the 50% effective concentration (EC50) is 43 nM.

Turning to `COC(=O)C1CCN(C(=S)N/N=C(\C)c2nn(C)c(-c3ccc4c(c3)CCC4)c2O)CC1` [compound 8], the EC50 was 99.4 nM.

As to `C/C(=N\NC(=S)N1CCC(C(=O)O)CC1)c1nn(C)c(-c2ccc3c(c2)CCC3)c1O` [compound 9], the EC50 is 76.5 nM.

Take `C/C(=N\NC(=O)c1ccc(C(=O)O)s1)c1nn(C)c(-c2ccc3c(c2)CCC3)c1O` [compound 10]: the concentration for a half-maximal effect (EC50) is 45.5 nM.

Turning to `C/C(=N\NC(=O)c1ccc(C(=O)O)cc1)c1nn(C)c(-c2ccc3c(c2)CCC3)c1O` [compound 11], the half-maximal effective concentration (EC50) is 57.6 nM.

Take `C/C(=N\NC(=O)c1ccc(C(=O)O)c([N+](=O)[O-])c1)c1nn(C)c(-c2ccc3c(c2)CCC3)c1O` [compound 12]: the EC50 was 1.73 nM.

Regarding `C/C(=N\NC(=S)Nc1ccc(C(=O)O)cc1)c1nn(C)c(-c2ccc3c(c2)CCC3)c1O` [compound 13], the concentration giving a half-maximal response (EC50) was 59.2 nM.

As for `C/C(=N\NC(=S)Nc1cccc(C(=O)O)c1)c1nn(C)c(-c2ccc3c(c2)CCC3)c1O` [compound 14], the EC50 is 22.7 nM.

Consider `C/C(=N\NC(=S)Nc1ccc(C(=O)O)c(Cl)c1)c1nn(C)c(-c2ccc3c(c2)CCC3)c1O` [compound 15], for which the EC50 is 12.8 nM.

`C/C(=N\NC(=O)c1ccc(C(=O)NCCc2ccncc2)s1)c1csc(-c2ccc3c(c2)CCCC3)c1O` [compound 16]: the concentration for a half-maximal effect (EC50) was 0.496 nM.

In the case of `C/C(=N\NC(=S)Nc1cccc(C(=O)O)c1)c1csc(-c2ccc3c(c2)CCCC3)c1O` [compound 17], the EC50 is 49.4 nM.

Take `C/C(=N\NC(=O)c1ccc(C(=O)NCc2ccncc2)s1)c1csc(-c2ccc3c(c2)CCO3)c1O` [compound 18]: the EC50 was 5.4 nM.

As to `C/C(=N\NC(=O)c1ccc(C(=O)NCCc2ccncc2)s1)c1csc(-c2ccc3c(c2)CCO3)c1O` [compound 19], the concentration for a half-maximal effect (EC50) is 30 nM.

Consider `C/C(=N\NC(=O)c1ccc(C(=O)N2CCCC2)s1)c1csc(-c2ccc3c(c2)CCO3)c1O` [compound 21], for which the EC50 was 99.7 nM.

Take `C/C(=N\NC(=O)c1ccc(C(=O)NCc2ccncc2)s1)c1csc(-c2ccc3c(c2)CCC3)c1O` [compound 25]: the EC50 was 0.523 nM.

Consider `C/C(=N\NC(=O)c1ccc(C(=O)NCCc2ccncc2)s1)c1csc(-c2ccc3c(c2)CCC3)c1O` [compound 26], for which the EC50 is 0.867 nM.

As to `CCN(CC)C(=O)c1ccc(C(=O)N/N=C(\C)c2csc(-c3ccc4c(c3)CCC4)c2O)s1` [compound 27], the half-maximal effective concentration (EC50) was 6.44 nM.

In the case of `C/C(=N\NC(=O)c1ccc(C(=O)N2CCCC2)s1)c1csc(-c2ccc3c(c2)CCC3)c1O` [compound 28], the EC50 was 5.84 nM.

Consider `COC(=O)c1ccc(C(=O)N/N=C(\C)c2csc(-c3ccc4c(c3)CCC4)c2O)cc1[N+](=O)[O-]` [compound 29], for which the half-maximal effective concentration (EC50) was 12.9 nM.

On to `COC(=O)c1ccc(C(=O)N/N=C(\C)c2csc(-c3ccc4c(c3)CCC4)c2O)s1` [compound 30], for which the 50% effective concentration (EC50) is 18.8 nM.

For `COC(=O)c1ccc(C(=O)N/N=C(\C)c2csc(-c3ccc4c(c3)CCC4)c2O)cc1` [compound 31], the EC50 is 52.9 nM.

As for `C/C(=N\NC(=O)c1ccc(C(=O)NCc2ccncc2)s1)c1csc(-c2ccc3c(c2)CCCC3)c1O` [compound 32], the EC50 was 0.452 nM.

As to `CCN(CC)C(=O)c1ccc(C(=O)N/N=C(\C)c2csc(-c3ccc4c(c3)CCCC4)c2O)s1` [compound 33], the concentration giving a half-maximal response (EC50) is 4.84 nM.

For `C/C(=N\NC(=O)c1ccc(C(=O)N2CCCC2)s1)c1csc(-c2ccc3c(c2)CCCC3)c1O` [compound 34], the concentration giving a half-maximal response (EC50) is 2.43 nM.

For `COC(=O)c1ccc(C(=O)N/N=C(\C)c2csc(-c3ccc4c(c3)CCCC4)c2O)s1` [compound 36], the EC50 is 9.46 nM.

With `COC(=O)c1ccc(C(=O)N/N=C(\C)c2csc(-c3ccc4c(c3)CCCC4)c2O)cc1` [compound 37], the EC50 is 40.1 nM.

Consider `C/C(=N\NC(=S)Nc1ccc(C(=O)O)c(Cl)c1)c1csc(-c2ccc3c(c2)CCO3)c1O` [compound 39], for which the 50% effective concentration (EC50) was 43 nM.

`COC(=O)C1CCN(C(=S)N/N=C(\C)c2csc(-c3ccc4c(c3)CCC4)c2O)CC1` [compound 40]: the EC50 is 52.4 nM.

Regarding `C/C(=N\NC(=S)Nc1ccc(C(=O)O)c(Cl)c1)c1csc(-c2ccc3c(c2)CCC3)c1O` [compound 41], the EC50 was 6.79 nM.

Regarding `COC(=O)C1CCN(C(=S)N/N=C(\C)c2csc(-c3ccc4c(c3)CCCC4)c2O)CC1` [compound 42], the half-maximal effective concentration (EC50) was 48.8 nM.

In the case of `C/C(=N\NC(=S)Nc1ccc(C(=O)O)c(Cl)c1)c1csc(-c2ccc3c(c2)CCCC3)c1O` [compound 43], the 50% effective concentration (EC50) was 4.8 nM.

Regarding `C/C(=N\NC(=O)c1ccc(C(=O)O)cc1)c1csc(-c2ccc3c(c2)CCO3)c1O` [compound 46], the EC50 is 94.7 nM.

Consider `C/C(=N\NC(=O)c1ccc(C(=O)O)c([N+](=O)[O-])c1)c1csc(-c2ccc3c(c2)CCO3)c1O` [compound 47], for which the concentration giving a half-maximal response (EC50) was 55.6 nM.

In the case of `C/C(=N\NC(=S)N1CCC(C(=O)O)CC1)c1csc(-c2ccc3c(c2)CCC3)c1O` [compound 48], the concentration for a half-maximal effect (EC50) is 4.06 nM.

Turning to `C/C(=N\NC(=O)c1ccc(C(=O)O)s1)c1csc(-c2ccc3c(c2)CCC3)c1O` [compound 49], the concentration for a half-maximal effect (EC50) was 3.28 nM.

On to `C/C(=N\NC(=O)c1ccc(C(=O)O)cc1)c1csc(-c2ccc3c(c2)CCC3)c1O` [compound 50], for which the concentration giving a half-maximal response (EC50) is 1.76 nM.

As to `C/C(=N\NC(=O)c1ccc(C(=O)O)c([N+](=O)[O-])c1)c1csc(-c2ccc3c(c2)CCC3)c1O` [compound 51], the EC50 was 0.451 nM.

On to `C/C(=N\NC(=S)N1CCC(C(=O)O)CC1)c1csc(-c2ccc3c(c2)CCCC3)c1O` [compound 52], for which the EC50 is 3.71 nM.

Consider `C/C(=N\NC(=O)c1ccc(C(=O)O)s1)c1csc(-c2ccc3c(c2)CCCC3)c1O` [compound 53], for which the EC50 is 1.25 nM.

With `C/C(=N\NC(=O)c1ccc(C(=O)O)cc1)c1csc(-c2ccc3c(c2)CCCC3)c1O` [compound 54], the EC50 is 2.99 nM.

Turning to `C/C(=N\NC(=O)c1ccc(C(=O)O)c([N+](=O)[O-])c1)c1csc(-c2ccc3c(c2)CCCC3)c1O` [compound 55], the EC50 is 0.396 nM.

With `C/C(=N\NC(=S)Nc1ccc(C(=O)O)cc1)c1csc(-c2ccc3c(c2)CCO3)c1O` [compound 56], the 50% effective concentration (EC50) was 57.3 nM.

Take `C/C(=N\NC(=S)Nc1ccc(C(=O)O)cc1)c1csc(-c2ccc3c(c2)CCC3)c1O` [compound 58]: the concentration for a half-maximal effect (EC50) was 5.76 nM.

Consider `C/C(=N\NC(=S)Nc1cccc(C(=O)O)c1)c1csc(-c2ccc3c(c2)CCC3)c1O` [compound 59], for which the concentration giving a half-maximal response (EC50) was 53.1 nM.

On to `C/C(=N\NC(=S)Nc1ccc(C(=O)O)cc1)c1csc(-c2ccc3c(c2)CCCC3)c1O` [compound 60], for which the 50% effective concentration (EC50) was 5.8 nM.

With `C/C(=N\NC(=S)Nc1cccc(-c2nnn[nH]2)c1)c1csc(-c2ccc3c(c2)CCCC3)c1O` [compound 61], the concentration giving a half-maximal response (EC50) was 4.08 nM.

With `C/C(=N\NC(=S)Nc1ccc(-c2nnn[nH]2)cc1)c1csc(-c2ccc3c(c2)CCCC3)c1O` [compound 62], the EC50 was 4.08 nM.

For `C/C(=N\NC(=S)Nc1cccc(-c2nnn[nH]2)c1)c1csc(-c2ccc3c(c2)CCC3)c1O` [compound 63], the EC50 was 3.99 nM.
